Experimental data reported in US20240197728A1, “METHODS AND PHARMACEUTICAL COMPOSITIONS FOR TREATING REFRACTORY EPILEPSY” (INSERM (INSTITUT NATIONAL DE LA SANTÉ ET DE LA RECHERCHE …, priority 2021, published 2024).

How the values were obtained:
[1] = molecular target: T1, recombinant human STK39 (SPAK) (Homo sapiens, UniProt Q9UEW8); assay: Radiometric kinase profiling assay; assay type: biochemical; details: 70 μM ATP
T1 construct: purchased Eurofins Discovery (KinaseProfiler, contractor)
Description: (§1) Kinase activity profiles (data not shown) were performed using radiometric assays to measure kinase catalytic activity for PCPZ concentrations ranging 0.1-500 μM in DMSO or CLP257 concentrations ranging 0.1-1000 μM in DMSO, in the presence of 70 μM ATP. Equimolar DMSO concentrations were used as control. Additional information on the kinase profiler assay can be obtained from the contractor's website. (https://www.eurofinsdiscoveryservices.com/cms/cms-content/services/in-vitro-assays/kinases/kinase-profiler).

[2] = molecular target: T2, recombinant human WNK3 (Homo sapiens, UniProt Q9BYP7); assay: Radiometric kinase profiling assay; assay type: biochemical; details: 70 μM ATP
T2 construct: purchased Eurofins Discovery (KinaseProfiler, contractor)
T2 sequence (Q9BYP7 whole entry): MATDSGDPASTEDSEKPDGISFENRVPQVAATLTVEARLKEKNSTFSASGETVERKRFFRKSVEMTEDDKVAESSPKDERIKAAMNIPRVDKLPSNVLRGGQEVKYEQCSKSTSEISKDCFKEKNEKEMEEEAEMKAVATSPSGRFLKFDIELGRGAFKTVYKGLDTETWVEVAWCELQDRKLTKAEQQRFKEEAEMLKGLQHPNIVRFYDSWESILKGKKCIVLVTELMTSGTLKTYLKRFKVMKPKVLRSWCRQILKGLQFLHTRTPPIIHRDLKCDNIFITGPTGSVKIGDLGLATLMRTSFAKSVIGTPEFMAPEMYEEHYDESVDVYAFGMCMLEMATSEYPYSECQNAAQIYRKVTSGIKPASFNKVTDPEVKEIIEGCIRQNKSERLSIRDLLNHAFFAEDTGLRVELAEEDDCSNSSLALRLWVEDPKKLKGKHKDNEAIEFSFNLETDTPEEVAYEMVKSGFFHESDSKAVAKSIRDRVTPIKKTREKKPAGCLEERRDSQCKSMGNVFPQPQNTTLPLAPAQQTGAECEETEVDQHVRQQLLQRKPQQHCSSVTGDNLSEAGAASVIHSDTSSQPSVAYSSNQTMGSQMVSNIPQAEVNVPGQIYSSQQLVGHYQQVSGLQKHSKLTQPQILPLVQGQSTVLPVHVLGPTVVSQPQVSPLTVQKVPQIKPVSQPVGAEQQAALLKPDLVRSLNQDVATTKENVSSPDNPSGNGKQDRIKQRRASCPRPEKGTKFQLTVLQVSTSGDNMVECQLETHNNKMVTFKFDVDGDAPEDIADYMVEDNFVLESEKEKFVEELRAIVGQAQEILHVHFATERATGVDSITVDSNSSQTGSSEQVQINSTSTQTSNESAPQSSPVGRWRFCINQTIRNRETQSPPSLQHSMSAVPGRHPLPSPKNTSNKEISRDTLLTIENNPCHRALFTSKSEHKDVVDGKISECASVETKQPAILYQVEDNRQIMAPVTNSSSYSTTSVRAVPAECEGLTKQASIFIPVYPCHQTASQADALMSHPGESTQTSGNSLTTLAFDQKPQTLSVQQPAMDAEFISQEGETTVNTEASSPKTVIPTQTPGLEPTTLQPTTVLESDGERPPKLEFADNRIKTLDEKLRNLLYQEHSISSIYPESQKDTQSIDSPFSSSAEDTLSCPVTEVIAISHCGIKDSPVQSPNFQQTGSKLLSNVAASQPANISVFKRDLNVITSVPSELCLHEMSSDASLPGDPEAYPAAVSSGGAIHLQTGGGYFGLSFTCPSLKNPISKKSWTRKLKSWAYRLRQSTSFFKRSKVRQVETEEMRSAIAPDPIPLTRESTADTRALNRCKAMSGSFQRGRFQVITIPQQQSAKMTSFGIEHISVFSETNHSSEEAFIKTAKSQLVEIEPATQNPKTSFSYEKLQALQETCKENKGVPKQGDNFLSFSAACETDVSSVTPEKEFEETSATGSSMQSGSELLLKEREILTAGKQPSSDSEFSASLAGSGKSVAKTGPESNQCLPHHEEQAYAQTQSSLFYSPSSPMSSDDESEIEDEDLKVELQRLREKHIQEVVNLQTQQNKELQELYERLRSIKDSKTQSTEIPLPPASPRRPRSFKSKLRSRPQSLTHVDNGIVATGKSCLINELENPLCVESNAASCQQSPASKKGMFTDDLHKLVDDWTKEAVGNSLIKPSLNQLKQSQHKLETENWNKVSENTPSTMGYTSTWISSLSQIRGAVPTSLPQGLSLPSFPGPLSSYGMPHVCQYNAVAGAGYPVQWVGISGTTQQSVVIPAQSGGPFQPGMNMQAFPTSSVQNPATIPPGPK
Description: as §1

[3] = test system: OSR1; assay: Immunoblot of OSR1 phosphorylation and expression in hippocampo-cortical slices; assay type: cell-based, rat; details: vs DMSO
Description: (§2) For all experiments on hippocampal cultures, neurons were pre-incubated for 2 hours with either DMSO, PCPZ or CLP257 in a CO2 incubator set at 37° C. Drugs were added directly to the culture medium. For electrophysiology experiments, neurons were also recorded in presence of these drugs in the bath. For biochemistry experiments on rat hippocampo-cortical slices, slices were incubated with either DMSO (vehicle), CLP257, PCPZ, WNK463 or sodium orthovanadate for 2 hours in interface chambers set at 37° C. For human tissue experiments, slices were pre-incubated with either DMSO, CLP257 or PCPZ for 2 hours in interface chambers set at 37° C. and then also recorded in presence of these compounds.
(§3) 8-weeks old Sprague Dawley male rats were anesthetized by intraperitoneal ketamine/xylazine injection (120/10 mg/kg) and perfused transcardially with ice-cold (0-4° C.), oxygenated solution (O2/CO2 95/5%), containing (in mM): N-methyl-d-glucamine 93, KCl 2.5, NaH2PO4 1.2, NaHCO330, HEPES 20, D-glucose 20, ascorbic acid 5, sodium pyruvate 3, MgSO4 10 and CaCl2) 0.5 (300-310 mOsm, pH7.4). Brains were removed and transverse hippocampo-cortical slices (400 m thick) were prepared in the same solution using a vibratome (HM650V, Microm). Slices were then incubated for 2-hours with DMSO, the KCC2 enhancers (CLP257, PCPZ, WNK43) or sodium orthovanadate in an interface chamber containing artificial cerebrospinal fluid (ACSF) composed of (in mM): D-glucose 10, KCl 3.5, NaHOC3 26, NaH2PO4 1.25, NaCl 126, CaCl2) 1.6 and MgCl2 1.2 (290 mOsm), equilibrated with 5% CO2 in 95% 02. After the treatments, slices were washed with cold PBS, instantaneously frozen with liquid nitrogen and stored at −80° C.
(§4) Slices were mechanically lysed on ice, using a 2 mL Dounce, in a buffer containing (in mM): Tris/HCl, pH 7.5 50, EGTA 1, EDTA 1, sodium orthovanadate 1, sodium-B-glycerophosphate 10, sodium fluoride 50, sodium pyrophosphate 5, sucrose 270, benzamidine 1, phenylmethylsulfonyl fluoride 2, Triton […], (v/v) 2-mercaptoethanol 0.1% and protease inhibitors (Roche). After complete homogenization, samples were centrifuged (16,000×g at 4° C. for 10 min) and the supernatant was collected. Protein quantification was done using Pierce BCA Protein Assay kit (Thermo Scientific) with BSA as standard.
Samples were subjected to electrophoresis on polyacrylamide gradient gels (4-12% bis-tris gels) and transferred to nitrocellulose membranes. Membranes were rinsed with TBS-tween solution (TBST; Invitrogen) and blocked with 5% (w/v) skim milk. The membranes were then immunoblotted in 5% (w/v) skim milk in TBST with a primary antibody against KCC2 (rabbit, 07-432; Millipore; 1:1000), or phosphotyrosine (mouse, clone 4G10, Millipore, 1:1000), and a mouse primary antibody against neuron-specific beta-III tubulin overnight at 4° C. (clone 2G10; T8578; Sigma-Aldrich; 1:1000). They were then washed three times with distillated water, three times with TBST-milk solution and incubated for one hour at RT with goat secondary antibodies anti-rabbit IRDye 800 (1:3000; LI-COR), goat anti-mouse IRDye 700 (1:3000; LI-COR) or donkey anti-sheep DyLight 800 (1:3000; Rockland). Membranes were then washed again with TBST three times and one time with TBS. Fluorescence was detected and the relative intensities of immunoblot bands were determined using Odyssey infrared imaging system (LI-COR Bioscience). […]

[4] = test system: KCC2; assay: Immunoprecipitation/immunoblot of KCC2 phosphorylation and expression in hippocampo-cortical slices; assay type: cell-based, rat; details: for change of total KCC2 expression: slices; for change of total KCC2 expression / change of KCC2 phosphorylation at S940 / change of KCC2 phosphorylation at T906 / change of KCC2 phosphorylation at T1007: vs DMSO
Description: as §2, §3, §4
The following phosphorylation site-specific antibodies: anti-KCC3A phospho Thr1048 (0.35 mg/ml, sheep, [S0961C] 1st bleed, Dundee), anti-KCC3A phospho Thr 991 (0.26 mg/ml, sheep, [S959C] 1st bleed, Dundee) were first incubated for 30 min at 4° C. with the corresponding non-phosphorylated peptide (10 mg/ml, Dundee).
Phospho-antibodies or anti-KCC2 antibodies (07-432; Millipore) were then coupled with protein-G-Sepharose (4 Fast Flow; Sigma-Aldrich) at a ratio of […] of antibody per 100 μl of beads, for 2 h at 4° C. without agitation. 1.5 mg of clarified cell lysate was incubated with the antibody-coupled bead suspension, overnight at 4° C. under gentle agitation. The supernatant was collected after centrifugation and beads were washed twice with NaCl solution (0.25M NaCl in 1×PBS) and twice with PBS alone. Bound proteins were eluted with 2×LDS sample buffer (Invitrogen) containing 0.5% (v/v) 2-mercaptoethanol and denaturated at 75° C. for 20 min (IP with phospho-antibodies) or 37° C. for 1 h (IP with anti-KCC2 antibodies) before centrifugation (13,000×g at 4° C. for 15-20 min).
Samples were subjected to electrophoresis on polyacrylamide gradient gels (4-12% bis-tris gels) and transferred to nitrocellulose membranes. Membranes were rinsed with TBS-tween solution (TBST; Invitrogen) and blocked with 5% (w/v) skim milk. The membranes were then immunoblotted in 5% (w/v) skim milk in TBST with a primary antibody against KCC2 (rabbit, 07-432; Millipore; 1:1000), or phosphotyrosine (mouse, clone 4G10, Millipore, 1:1000), and a mouse primary antibody against neuron-specific beta-III tubulin overnight at 4° C. (clone 2G10; T8578; Sigma-Aldrich; 1:1000). […]

inhibition of SPAK kinase activity ([1]; PCPZ 0.1-500 μM) | inhibition of WNK3 kinase activity ([2]; PCPZ 0.1-500 μM) | inhibition of SPAK kinase activity ([1]; CLP257 0.1-1000 μM) | inhibition of WNK3 kinase activity ([2]; CLP257 0.1-1000 μM) | SMILES | change of OSR1 phosphorylation (S325 residue) ([3]; 10 μM PCPZ, 2 h) | change of total expression of OSR1 ([3]; 10 μM PCPZ, 2 h) | change of tyrosine phosphorylation of KCC2 ([4]; 10 μM PCPZ, 2 h) | change of total KCC2 expression ([4]; 10 μM PCPZ, 2 h) | change of KCC2 phosphorylation at S940 ([4]; 10 μM PCPZ, 2 h) | change of KCC2 phosphorylation at T906 ([4]; 10 μM PCPZ, 2 h) [%] | change of KCC2 phosphorylation at T1007 ([4]; 10 μM PCPZ, 2 h) | change of OSR1 phosphorylation (S325 residue) ([3]; 100 μM CLP257, 2 h) | change of total expression of OSR1 ([3]; 100 μM CLP257, 2 h) [%] | change of tyrosine phosphorylation of KCC2 ([4]; 100 μM CLP257, 2 h) | change of total KCC2 expression ([4]; 100 μM CLP257, 2 h) [%] | change of KCC2 phosphorylation at S940 ([4]; 100 μM CLP257, 2 h) [%] | change of KCC2 phosphorylation at T906 ([4]; 100 μM CLP257, 2 h) [%] | change of KCC2 phosphorylation at T1007 ([4]; 100 μM CLP257, 2 h) [%]
no direct inhibitory effect | no direct inhibitory effect | – | – | CN1CCN(CCCN2c3ccccc3Sc3ccc(Cl)cc32)CC1 [PCPZ, prochlorperazine] | +11.80±23.50% | +26.3±12.8% | +6.38±14.7% | +12.1±32.8% | +20.30±18.70% | −10.20±10.40 | +26.40%±17.00 | – | – | – | – | – | – | –
– | – | no direct inhibitory effect | no direct inhibitory effect | O=C1N=C(N2CCCCN2)S/C1=C\c1ccc(F)cc1O [CLP257, (5Z)-5-[(4-Fluoro-2-hydroxyphenyl)methylene]-2-(tetrahydro-1-(2H)-pyridazinyl)-4(5H)-thiazolone] | – | – | – | – | – | – | – | +11.50±18.50% | −2.24±8.27 | +19.00±15.00% | −6.92±11.80 | −19.70±34.40 | −12.70±10.90 | −18.50±17.10
